Experimental data reported in publication PMC8330742, “New benzothieno[2,3-c]pyridines as non-steroidal CYP17 inhibitors: design, synthesis, anticancer screening, apoptosis induction, and in silico ADME profile studies” (Journal of Enzyme Inhibition and Medicinal Chemistry, 2021).

Tests used:
CCRF-CEM = assay: NCI-60 SRB screen; type: cell-based; settings: Homo sapiens, single dose 10^−5 M, read-out: Growth inhibition (%)
HL-60(TB) = assay: NCI-60 SRB screen; type: cell-based, human; settings: Homo sapiens; HL-60 (TB); single dose 10^−5 M; read-out: Growth inhibition (%)
K-562 = assay: NCI-60 SRB screen; type: cell-based, human; settings: Homo sapiens, K562; K-562; single dose 10^−5 M; read-out: Growth inhibition (%)
MOLT-4 = assay: NCI-60 SRB screen; type: cell-based; settings: Homo sapiens; MOLT-4; single dose 10^−5 M; read-out: Growth inhibition (%)
SR = assay: NCI-60 SRB screen; type: cell-based; settings: Homo sapiens, single dose 10^−5 M, read-out: Growth inhibition (%)
A549/ATCC = assay: NCI-60 SRB screen; type: cell-based, human; settings: Homo sapiens, single dose 10^−5 M, read-out: Growth inhibition (%)
EKVX = assay: NCI-60 SRB screen; type: cell-based, human; settings: Homo sapiens, single dose 10^−5 M, read-out: Growth inhibition (%)
HOP-62 = assay: NCI-60 SRB screen; type: cell-based, human; settings: Homo sapiens; HOP-62; single dose 10^−5 M; read-out: Growth inhibition (%)
NCI-H226 = assay: NCI-60 SRB screen; type: cell-based, human; settings: Homo sapiens; NCI-H226; single dose 10^−5 M; read-out: Growth inhibition (%)
NCI-H23 = assay: NCI-60 SRB screen; type: cell-based, human; settings: Homo sapiens; NCI-H23; single dose 10^−5 M; read-out: Growth inhibition (%)
NCI-H322M = assay: NCI-60 SRB screen; type: cell-based, human; settings: Homo sapiens, single dose 10^−5 M, read-out: Growth inhibition (%)
NCI-H460 = assay: NCI-60 SRB screen; type: cell-based, human; settings: Homo sapiens; NCI-H460; single dose 10^−5 M; read-out: Growth inhibition (%)
NCI-H522 = assay: NCI-60 SRB screen; type: cell-based, human; settings: Homo sapiens; NCI-H522; single dose 10^−5 M; read-out: Growth inhibition (%)
COLO 205 = assay: NCI-60 SRB screen; type: cell-based, human; settings: Homo sapiens; COLO 205; single dose 10^−5 M; read-out: Growth inhibition (%)
HCC-2998 = assay: NCI-60 SRB screen; type: cell-based, human; settings: Homo sapiens; HCC-2998; single dose 10^−5 M; read-out: Growth inhibition (%)
HCT-116 = assay: NCI-60 SRB screen; type: cell-based, human; settings: Homo sapiens; HCT-116; single dose 10^−5 M; read-out: Growth inhibition (%)
HCT-15 = assay: NCI-60 SRB screen; type: cell-based, human; settings: Homo sapiens; HCT-15; single dose 10^−5 M; read-out: Growth inhibition (%)
HT-29 = assay: NCI-60 SRB screen; type: cell-based; settings: Homo sapiens; HT-29; single dose 10^−5 M; read-out: Growth inhibition (%)
KM12 = assay: NCI-60 SRB screen; type: cell-based, human; settings: Homo sapiens; KM12; single dose 10^−5 M; read-out: Growth inhibition (%)
SW-620 = assay: NCI-60 SRB screen; type: cell-based; settings: Homo sapiens; SW-620; single dose 10^−5 M; read-out: Growth inhibition (%)
SF-268 = assay: NCI-60 SRB screen; type: cell-based, human; settings: Homo sapiens; SF-268; single dose 10^−5 M; read-out: Growth inhibition (%)
SF-295 = assay: NCI-60 SRB screen; type: cell-based, human; settings: Homo sapiens; SF-295; single dose 10^−5 M; read-out: Growth inhibition (%)
LOX IMVI = assay: NCI-60 SRB screen; type: cell-based, human; settings: Homo sapiens, single dose 10^−5 M, read-out: Growth inhibition (%)
MALME-3M = assay: NCI-60 SRB screen; type: cell-based, human; settings: Homo sapiens, single dose 10^−5 M, read-out: Growth inhibition (%)
M14 = assay: NCI-60 SRB screen; type: cell-based, human; settings: Homo sapiens; M14; single dose 10^−5 M; read-out: Growth inhibition (%)
MDA-MB-435 = assay: NCI-60 SRB screen; type: cell-based; settings: Homo sapiens, MDA-MB-435, read-out: Growth inhibition (%)
SK-MEL-2 = assay: NCI-60 SRB screen; type: cell-based, human; settings: Homo sapiens; SK-MEL-2; single dose 10^−5 M; read-out: Growth inhibition (%)
SK-MEL-28 = assay: NCI-60 SRB screen; type: cell-based; settings: Homo sapiens; SK-MEL-28; single dose 10^−5 M; read-out: Growth inhibition (%)
SK-MEL-5 = assay: NCI-60 SRB screen; type: cell-based, human; settings: Homo sapiens; SK-MEL-5; single dose 10^−5 M; read-out: Growth inhibition (%)
UACC-257 = assay: NCI-60 SRB screen; type: cell-based, human; settings: Homo sapiens, UACC-257; UACC-275 (so in the source); single dose 10^−5 M; read-out: Growth inhibition (%)
UACC-62 = assay: NCI-60 SRB screen; type: cell-based, human; settings: Homo sapiens; UACC-62; single dose 10^−5 M; read-out: Growth inhibition (%)
IGROV1 = assay: NCI-60 SRB screen; type: cell-based, human; settings: Homo sapiens, IGROV-1; IGROV1; single dose 10^−5 M; read-out: Growth inhibition (%)
OVCAR-3 = assay: NCI-60 SRB screen; type: cell-based, human; settings: Homo sapiens; OVCAR-3; single dose 10^−5 M; read-out: Growth inhibition (%)
OVCAR-4 = assay: NCI-60 SRB screen; type: cell-based, human; settings: Homo sapiens; OVCAR-4; single dose 10^−5 M; read-out: Growth inhibition (%)
OVCAR-8 = assay: NCI-60 SRB screen; type: cell-based, human; settings: Homo sapiens; OVCAR-8; single dose 10^−5 M; read-out: Growth inhibition (%)
NCI/ADR-RES = assay: NCI-60 SRB screen; type: cell-based, human; settings: Homo sapiens, single dose 10^−5 M, read-out: Growth inhibition (%)
SK-OV-3 = assay: NCI-60 SRB screen; type: cell-based, human; settings: Homo sapiens; SK-OV-3; single dose 10^−5 M; read-out: Growth inhibition (%)
786-0 = assay: NCI-60 SRB screen; type: cell-based; settings: Homo sapiens; 786-0; single dose 10^−5 M; read-out: Growth inhibition (%)
ACHN = assay: NCI-60 SRB screen; type: cell-based; settings: Homo sapiens, single dose 10^−5 M, read-out: Growth inhibition (%)
RXF 393 = assay: NCI-60 SRB screen; type: cell-based, human; settings: Homo sapiens; RXF 393; single dose 10^−5 M; read-out: Growth inhibition (%)
SN12C = assay: NCI-60 SRB screen; type: cell-based, human; settings: Homo sapiens, SN12C; SN 12 C; single dose 10^−5 M; read-out: Growth inhibition (%)
TK-10 = assay: NCI-60 SRB screen; type: cell-based, human; settings: Homo sapiens; TK-10; single dose 10^−5 M; read-out: Growth inhibition (%)
UO-31 = assay: NCI-60 SRB screen; type: cell-based, human; settings: Homo sapiens; UO-31; single dose 10^−5 M; read-out: Growth inhibition (%)
[1] = tested on: panel of 60 cancer cell lines; assay: NCI-60 SRB screen, mean or range over the panel; type: cell-based, human; settings: Homo sapiens; mean over the cell lines; single dose 10^−5 M; read-out: Mean growth inhibition (%)

## COc1ccc(C2NC(=O)C(Cl)c3c2sc2c(F)cccc32)c(OC)c1 (stereo not shown) [Compound 4a, 4-Chloro-1-(2,4-Dimethoxyphenyl)-8-fluoro-1,2-dihydro[1]benzothieno [2,3-c]pyridine-3(4H)-one]
CCRF-CEM
  inhibition at 10 µM: -1.02%
HL-60(TB)
  inhibition at 10 µM: 0.73%
K-562
  inhibition at 10 µM: 12.5%
MOLT-4
  inhibition at 10 µM: 4.69%
SR
  inhibition at 10 µM: 36.6%
A549/ATCC
  inhibition at 10 µM: -4.25%
EKVX
  inhibition at 10 µM: 2.22%
HOP-62
  inhibition at 10 µM: 9.42%
NCI-H226
  inhibition at 10 µM: 13.6%
NCI-H23
  inhibition at 10 µM: 1.72%
NCI-H322M
  inhibition at 10 µM: -4.72%
NCI-H460
  inhibition at 10 µM: -1.09%
NCI-H522
  inhibition at 10 µM: 8.58%
COLO 205
  inhibition at 10 µM: -16.7%
HCC-2998
  inhibition at 10 µM: -7.97%
HCT-116
  inhibition at 10 µM: -2.4%
HCT-15
  inhibition at 10 µM: -9.27%
HT-29
  inhibition at 10 µM: -10.5%
KM12
  inhibition at 10 µM: 3.86%
SW-620
  inhibition at 10 µM: -0.16%
SF-268
  inhibition at 10 µM: 9.64%
SF-295
  inhibition at 10 µM: -2.33%
LOX IMVI
  inhibition at 10 µM: 4.84%
MALME-3M
  inhibition at 10 µM: 9.21%
M14
  inhibition at 10 µM: 3.25%
MDA-MB-435
  inhibition at 10 µM: 8.55%
SK-MEL-2
  inhibition at 10 µM: -23.2%
SK-MEL-28
  inhibition at 10 µM: -1.74%
SK-MEL-5
  inhibition at 10 µM: -1.74%
UACC-257
  inhibition at 10 µM: -12.8%
UACC-62
  inhibition at 10 µM: 10.9%
IGROV1
  inhibition at 10 µM: 10.3%
OVCAR-3
  inhibition at 10 µM: 1.99%
OVCAR-4
  inhibition at 10 µM: -1.63%
OVCAR-8
  inhibition at 10 µM: -0.71%
NCI/ADR-RES
  inhibition at 10 µM: -5.94%
SK-OV-3
  inhibition at 10 µM: 0.53%
786-0
  inhibition at 10 µM: 4.93%
ACHN
  inhibition at 10 µM: 12.4%
RXF 393
  inhibition at 10 µM: -0.71%
SN12C
  inhibition at 10 µM: 9.45%
TK-10
  inhibition at 10 µM: -25.5%
UO-31
  inhibition at 10 µM: 40.3%
[1]
  inhibition at 10 µM: 1.85%

## COc1ccc(C2NC(=O)C(Cl)c3c2sc2c(F)cccc32)cc1 (stereo not shown) [Compound 4b, 4-Chloro-8-fluoro-1-(4-methoxyphenyl)-1,2-dihydro[1]benzothieno[2,3-c] pyridine-3(4H)-one]
CCRF-CEM
  inhibition at 10 µM: -0.42%
HL-60(TB)
  inhibition at 10 µM: -5.26%
K-562
  inhibition at 10 µM: 31.3%
MOLT-4
  inhibition at 10 µM: 7.88%
SR
  inhibition at 10 µM: 39.3%
A549/ATCC
  inhibition at 10 µM: 55.5%
EKVX
  inhibition at 10 µM: 23%
HOP-62
  inhibition at 10 µM: 17.2%
NCI-H226
  inhibition at 10 µM: 7.14%
NCI-H23
  inhibition at 10 µM: 6.41%
NCI-H322M
  inhibition at 10 µM: 22%
NCI-H460
  inhibition at 10 µM: 31.4%
NCI-H522
  inhibition at 10 µM: 21.7%
COLO 205
  inhibition at 10 µM: -20.5%
HCC-2998
  inhibition at 10 µM: -6.39%
HCT-116
  inhibition at 10 µM: 1.62%
HCT-15
  inhibition at 10 µM: 14.2%
HT-29
  inhibition at 10 µM: -6.98%
KM12
  inhibition at 10 µM: 7.6%
SW-620
  inhibition at 10 µM: 6.49%
SF-268
  inhibition at 10 µM: 14.3%
SF-295
  inhibition at 10 µM: 1.82%
LOX IMVI
  inhibition at 10 µM: 6.46%
MALME-3M
  inhibition at 10 µM: 10.8%
M14
  inhibition at 10 µM: 3.86%
MDA-MB-435
  inhibition at 10 µM: 33.7%
SK-MEL-2
  inhibition at 10 µM: -18.3%
SK-MEL-28
  inhibition at 10 µM: -0.07%
SK-MEL-5
  inhibition at 10 µM: -0.07%
UACC-257
  inhibition at 10 µM: -6.58%
UACC-62
  inhibition at 10 µM: 8.74%
IGROV1
  inhibition at 10 µM: 4.86%
OVCAR-3
  inhibition at 10 µM: 0.61%
OVCAR-4
  inhibition at 10 µM: 7.51%
OVCAR-8
  inhibition at 10 µM: 2.95%
NCI/ADR-RES
  inhibition at 10 µM: 9.18%
SK-OV-3
  inhibition at 10 µM: -2.04%
786-0
  inhibition at 10 µM: -0.46%
ACHN
  inhibition at 10 µM: -3.2%
RXF 393
  inhibition at 10 µM: 9.68%
SN12C
  inhibition at 10 µM: 3.66%
TK-10
  inhibition at 10 µM: -38.1%
UO-31
  inhibition at 10 µM: 71.7%
[1]
  inhibition at 10 µM: 8.66%
